“And” between values parts separate entries of the source, which are not always exact repeats. Identical values can stand only once. Like-named read-outs stand apart in the source and are kept apart here.
How the values were obtained:
[1] = tested on: human and yeast CYP51 (lanosterol-14α-demethylase); conditions: cited from earlier work; for relative selectivity for the fungal enzyme (in words): based on the IC50 ratio human/yeast; for ratio of IC50 values (human/yeast) against CYP51: human CYP51 IC50 / yeast (Candida albicans) CYP51 IC50
[2] = cited from earlier work
[3] = 20° C.; cited from earlier work
[4] = cited from earlier work; remark: listed apart in the source
[5] = cited from earlier work; remark: listed apart in the source
[6] = tested on: Antrodia xantha (Brown rot); experiment: Malt extract agar plate growth inhibition; format: cell-based
Method: (§1) The end points used were EC90 or EC50, the concentration producing 90% or 50% inhibition of growth or weight loss resulting from fungal growth. EC values were calculated by regression analysis of dose response data using the GraphPad Prism software package (GraphPad Software, Inc., 5755 Oberlin Drive #110, San Diego, Calif. 92121, USA). EC90 values are expressed in ppm and EC50 values are expressed in gai/m^3. […]

[7] = tested on: Coniophora puteana (Brown rot); experiment: Malt extract agar plate growth inhibition; format: cell-based; conditions: Example 6, 8 days growth
Method: as §1

[8] = tested on: Fomitopsis lilacino-gilva (Brown rot); experiment: Malt extract agar plate growth inhibition; format: cell-based; conditions: Example 4, 5 days at 25° C.
Method: (§2) The end points used were EC90 or EC50, the concentration producing 90% or 50% inhibition of growth or weight loss resulting from fungal growth. EC values were calculated by regression analysis of dose response data using the GraphPad Prism software package (GraphPad Software, Inc., 5755 Oberlin Drive #110, San Diego, Calif. 92121, USA). EC90 values are expressed in ppm and EC50 values are expressed in gai/m^3.
(§3) Decay fungi were grown on malt extract agar plates for 5 days at 25° C. in the presence of triadimefon alone or triadimenol alone (A), cyproconazole alone (B), and the pairs of mixtures shown in Table 2.

[9] = tested on: Trametes versicolor (White rot); experiment: Malt extract agar plate growth inhibition; format: cell-based; conditions: Example 4, 5 days at 25° C.
Method: as §2, §3

[10] = tested on: Gloeophyllum abietinum (Brown rot); experiment: Malt extract agar plate growth inhibition; format: cell-based; conditions: Example 5, 7 days growth
Method: as §1
(§4) Further EC90 values were determined for this example in a standard manner.

[11] = tested on: Poria placenta (Brown rot); experiment: Malt extract agar plate growth inhibition; format: cell-based
Method: as §1, §4

[12] = tested on: Pycnoporus coccineus (White rot); experiment: Malt extract agar plate growth inhibition; format: cell-based
Method: as §1, §4

[13] = tested on: Serpula lacrymans (Dry rot); experiment: Malt extract agar plate growth inhibition; format: cell-based
Method: as §1, §4

[14] = tested on: Tyromyces palustris (Brown rot); experiment: Malt extract agar plate growth inhibition; format: cell-based; conditions: Example 5, 4 days growth
Method: as §1, §4

[15] = tested on: Tyromyces palustris; experiment: Rot jar test of glueline treated Pinus radiata plywood (AWPC 2007)
Method: (§5) Efficacy as a glueline fungicide was tested in plywood manufactured with phenol formaldehyde (PF), a typical resin used in engineered wood products. The wood type was Pinus radiata sapwood, which, like many softwoods, is rapidly degraded by decay organisms, if not protected. Five 3.2 mm rotary-peeled veneers were laid up with fungicide-containing PF resin at a typical commercial glue spread rate (250 g/m^2), cold pressed for 10 minutes then hot pressed for 12 minutes at 135° C. and […]. Test specimens (25 mm×25 mm×16 mm) were cut, then leached for 14 days according to EN 84 before conducting a three month “rot jar test” as specified by the Australasian Wood Preservation Committee (Laboratory Decay Test for Hazard Classes H3, H4 and H5, AWPC, 2007). Untreated controls contained no fungicide.
Plywood was manufactured following the procedure in Example 7 using triadimefon and triadimenol as the glueline fungicides and tested by the rot jar method after leaching. […]

[16] = tested on: Antrodia xantha; experiment: as above; conditions: for Percentage weight loss: rot jar after leaching; for EC50(obs): Example 9, glueline rate giving 50% inhibition of weight loss, six rates, regression
Method: as §2, §5
(§6) Plywood was manufactured following the procedure in Example 7 using triadimefon and triadimenol as the glueline fungicides and tested by the rot jar method after leaching.
(§7) In order to examine the interaction between triadimefon and cyproconazole in the glueline a synergy trial was performed using plywood manufactured with fungicide-supplemented PF resin and the rot jar method described above. Six glueline rates (expressed as gai/m^3) of triadimefon alone, cyproconazole alone, triadimefon+cyproconazole (10:1) and triadimefon+cyproconazole (6:1) were used to establish EC50 values by regression analysis. Synergy was determined by the Wadley method as described above using the EC50 values.
(§8) Plywood 29 mm thick was manufactured from seven 4.3 mm rotary peeled Pinus radiata sapwood veneers using PF resin supplemented with various rates of triadimefon plus cyproconazole at a 10:1 ratio. […] The finished plywood was then sprayed with the same mixtures to cover the top and bottom faces of the plywood. Test specimens (25 mm×25 mm×29 mm) were cut, leached and tested by the rot jar method as described in Example 7.

[17] = tested on: Fomitopsis lilacino-gilva; experiment: as above; conditions: for EC50(obs): Example 9, glueline rate giving 50% inhibition of weight loss, six rates, regression
Method: as §2, §5, §6, §7, §8

[18] = tested on: Serpula lacrymans; experiment: as above; conditions: for Percentage weight loss: leached, three month rot jar; for EC50(obs): Example 9, glueline rate giving 50% inhibition of weight loss, six rates, regression
Method: as §2, §5
as §7, with “values. […]” for “values.”

[19] = tested on: Coniophora puteana; experiment: as above; conditions: Example 10, glueline rate giving 50% inhibition of weight loss, regression
Method: as §2
Efficacy as a glueline fungicide was tested in plywood manufactured with phenol formaldehyde (PF), a typical resin used in engineered wood products. The wood type was Pinus radiata sapwood, which, like many softwoods, is rapidly degraded by decay organisms, if not protected. […]
as §7, with “values. […]” for “values.”

[20] = tested on: Decay fungi; experiment: Malt extract agar plate growth test, statements over all decay fungi tested; format: cell-based; conditions: Example 4, EC90, Antrodia xantha, Fomitopsis lilacino-gilva, Trametes versicolor
Method: as §2, §3, §4

[21] = cited from earlier work; remark: listed apart in the source
[22] = tested on: Coriolus versicolor; conditions: cited from earlier work
[23] = tested on: Chondrostereum purpureum; conditions: cited from earlier work
[24] = tested on: Trichoderma viride; conditions: cited from earlier work
[25] = in words, temperature not given
[26] = Example 7, glueline 62.5 gai/m3, PF plywood, leached, three month rot jar
[27] = Example 7, glueline 125 gai/m3, PF plywood, leached, three month rot jar
[28] = Example 7, glueline 250 gai/m3, PF plywood, leached, three month rot jar
[29] = Example 7, glueline 500 gai/m3, PF plywood, leached, three month rot jar
[30] = Example 8, glueline 250 gai/m3, PF plywood, rot jar after leaching
[31] = Example 8, glueline 500 gai/m3, PF plywood, rot jar after leaching
[32] = Example 8, glueline 1000 gai/m3, PF plywood, rot jar after leaching
[33] = Example 8, glueline 2000 gai/m3, PF plywood, rot jar after leaching
[34] = Example 8, glueline 250 gai/m3, PF plywood
[35] = Example 8, glueline 500 gai/m3, PF plywood
[36] = Example 8, glueline 1000 gai/m3, PF plywood
[37] = Example 8, glueline 2000 gai/m3, PF plywood
[38] = Example 7, glueline 62.5 gai/m3, PF plywood
[39] = Example 7, glueline 125 gai/m3, PF plywood
[40] = Example 7, glueline 250 gai/m3, PF plywood
[41] = Example 7, glueline 500 gai/m3, PF plywood

Compound: Propiconazole
- relative selectivity for the fungal enzyme (in words) [1]: moderately selective
- ratio of IC50 values (human/yeast) against CYP51 [1]: 55
- Kow (log P) [2]: 3.72
- Sol. Water [3]: 100 mg/L (20°)
- Sol. hexane ([4]; 25° C.): 47 g/L (25° C.)
- Sol. DCM [4, 25]: Completely misc
- Sol. toluene [4, 25]: Completely misc

Compound: CC(C)(C)C(O)(CCc1ccc(Cl)cc1)Cn1cncn1 (racemic) [Tebuconazole]
- Sol. Water [3]: 36 mg/L (20° C.)
- Sol. DCM ([4]; 20° C.): >200 g/L (20° C.)
- Sol. hexane ([4]; 20° C.): <0.1 g/L (20° C.)
- Sol. toluene ([4]; 20° C.): 50-100 g/L (20° C.)
- Stability, hydrolysis DT50 ([5]; pH 4-9): DT50 >1 y pH 4-9

Compound: CC(C)(C)C(=O)C(Oc1ccc(Cl)cc1)n1cncn1 (racemic) [Triadimefon]
- EC90(obs) ([6]; Example 4, 5 days at 25° C.): 2.56 ppm
- EC90(obs) ([6]; Example 6, 8 days growth): 2.52 ppm
- EC90(obs) [7]: 27.4 ppm
- EC90(obs) [8]: 1.48 ppm
- EC90(obs) [9]: 1.52 ppm
- EC90(obs) [10]: 17.2 ppm
- EC90(obs) ([11]; Example 5, 5 days growth): 0.82 ppm
- EC90(obs) ([11]; Example 6, 6 days growth): 1.08 ppm
- EC90(obs) ([12]; Example 5, 4 days growth): 0.34 ppm
- EC90(obs) ([12]; Example 6, 6 days growth): 0.70 ppm
- EC90(obs) ([13]; Example 5, 5 days growth): 26.4 ppm
- EC90(obs) ([13]; Example 6, 8 days growth): 26.3 ppm
- EC90(obs) [14]: 4.48 ppm
- Percentage weight loss [15, 26]: 28.7%
- Percentage weight loss [15, 27]: 29.2%
- Percentage weight loss [15, 28]: 16.5%
- Percentage weight loss [15, 29]: 7.6%
- Percentage weight loss [15, 30]: 14.2%
- Percentage weight loss [15, 31]: 10.7%
- Percentage weight loss [15, 32]: 2.0%
- Percentage weight loss [15, 33]: 0.4%
- Percentage weight loss [16, 34]: 29.4%
- Percentage weight loss [16, 35]: 20.3%
- Percentage weight loss [16, 36]: 12.5%
- Percentage weight loss [16, 37]: 6.1%
- EC50(obs) [16]: 248 gai/m^3
- Percentage weight loss [17, 26]: 17.8%
- Percentage weight loss [17, 27]: 16.7%
- Percentage weight loss [17, 28]: 10.3%
- Percentage weight loss [17, 29]: 8.2%
- Percentage weight loss [17, 30]: 19.1%
- Percentage weight loss [17, 31]: 13.8%
- Percentage weight loss [17, 32]: 5.1%
- Percentage weight loss [17, 33]: 3.6%
- EC50(obs) [17]: 121 gai/m^3
- Percentage weight loss [18, 38]: 42.4%
- Percentage weight loss [18, 39]: 43.8%
- Percentage weight loss [18, 40]: 42.2%
- Percentage weight loss [18, 41]: 44.9%
- EC50(obs) [18]: 14328 gai/m^3
- EC50(obs) [19]: 2591144 gai/m^3
- Kow (log P) [2]: 3.11
- Sol. Water [3]: 64 mg/L (20° C.)
- Sol. DCM ([4]; 20° C.): >200 g/L (20° C.)
- Sol. hexane ([4]; 20° C.): 6.3 g/L (20° C.)
- Sol. toluene ([4]; 20° C.): >200 g/L (20° C.)
- Stability, hydrolysis DT50 ([5]; pH 4,7,9): DT50 >1 y pH 4,7,9

Compound: CC(C)(C)C(O)C(Oc1ccc(Cl)cc1)n1cncn1 (stereo not shown) [Triadimenol]
- efficacy acting alone relative to triadimefon acting alone [20]: two to ten times more efficacious
- EC90(obs) ([6]; Example 4, 5 days at 25° C.): 1.12 ppm
- EC90(obs) [8]: 0.37 ppm
- EC90(obs) [9]: 0.15 ppm
- EC90(obs) [10]: 1.80 ppm
- EC90(obs) ([11]; Example 5, 5 days growth): 0.84 ppm
- EC90(obs) ([12]; Example 5, 4 days growth): 0.10 ppm
- EC90(obs) ([13]; Example 5, 5 days growth): 42.8 ppm
- EC90(obs) [14]: 1.26 ppm
- Percentage weight loss [15, 30]: 9.6%
- Percentage weight loss [15, 31]: 6.5%
- Percentage weight loss [15, 32]: 0.9%
- Percentage weight loss [15, 33]: 0.3%
- Percentage weight loss [16, 34]: 24.7%
- Percentage weight loss [16, 35]: 18.4%
- Percentage weight loss [16, 36]: 11.2%
- Percentage weight loss [16, 37]: 1.0%
- Percentage weight loss [17, 30]: 9.0%
- Percentage weight loss [17, 31]: 5.1%
- Percentage weight loss [17, 32]: 1.6%
- Percentage weight loss [17, 33]: 0.9%
- Henry ([21]; triadimenol form A): 3 × 10^−6 P m^3 mo1^−1
- Henry ([21]; triadimenol form B): 4 × 10^−6 P m^3 mo1^−1
- relative selectivity for the fungal enzyme (in words) [1]: moderately selective
- ratio of IC50 values (human/yeast) against CYP51 [1]: 113
- sensitivity of the fungus (in words) [22]: sensitive
- sensitivity of the fungus (in words) [23]: sensitive
- sensitivity of the fungus (in words) [24]: insensitive
- Stability, hydrolysis DT50 ([5]; pH 4): DT50 >1 y pH 4,7,9

Compound: CC(C1CC1)C(O)(Cn1cncn1)c1ccc(Cl)cc1 (racemic) [Cyproconazole]
- EC90(obs) ([6]; Example 4, 5 days at 25° C.): 0.19 ppm
- EC90(obs) ([6]; Example 6, 8 days growth): 0.46 ppm
- EC90(obs) [7]: 1.93 ppm
- EC90(obs) [8]: 0.12 ppm
- EC90(obs) [9]: 0.30 ppm and 0.19 ppm
- EC90(obs) [10]: 0.25 ppm
- EC90(obs) ([11]; Example 5, 5 days growth): 0.92 ppm
- EC90(obs) ([11]; Example 6, 6 days growth): 0.36 ppm
- EC90(obs) ([12]; Example 5, 4 days growth): 0.17 ppm
- EC90(obs) ([12]; Example 6, 6 days growth): 0.14 ppm
- EC90(obs) ([13]; Example 5, 5 days growth): 1.60 ppm
- EC90(obs) ([13]; Example 6, 8 days growth): 1.32 ppm
- EC90(obs) [14]: 0.68 ppm
- Percentage weight loss [15, 26]: 25.0%
- Percentage weight loss [15, 27]: 16.0%
- Percentage weight loss [15, 28]: 17.1%
- Percentage weight loss [15, 29]: 4.3%
- EC50(obs) [16]: 84 gai/m^3
- Percentage weight loss [17, 26]: 7.6%
- Percentage weight loss [17, 27]: 4.1%
- Percentage weight loss [17, 28]: 2.7%
- Percentage weight loss [17, 29]: 0.8%
- EC50(obs) [17]: 10 gai/m^3
- Percentage weight loss [18, 38]: 38.0%
- Percentage weight loss [18, 39]: 38.0%
- Percentage weight loss [18, 40]: 37.9%
- Percentage weight loss [18, 41]: 29.6%
- EC50(obs) [18]: 465 gai/m^3
- EC50(obs) [19]: 345 gai/m^3
- Stability in water ([5]; pH 1): Stable in water 35 d

— patent US9826740B2, “Synergistic fungicidal compositions and methods of use” (ZELAM LIMITED, priority 2010, dated 2017)
